Common to all, as to test: biochemical
Holding throughout (parameters): DiscoverX KINOMEscan scanMAX competition binding panel, single concentration, percent of control; remaining binding: dose or concentration left out as unconfirmed
What all share (conditions): KINOMEscan binding, percent of control; read-out: Table S4_SCANMAX REPORT - related to Fig. 1 / Percent Control

Assay [1] has as its target AKT3 (Homo sapiens, UniProt Q9Y243).
The target of assay [2] is T1, PCTK3 (Homo sapiens, UniProt Q07002).
T1 construct: gene CDK18

Assay [3] addresses MET(Y1235D) (Homo sapiens, UniProt P08581, Y1235D).
Assay [4] addresses T2, SNARK (Homo sapiens, UniProt Q9H093).
T2 construct: gene NUAK2

In assay [5] the target is NEK5 (Homo sapiens, UniProt Q6P3R8).
Assay [6] deals with RIPK2 (Homo sapiens, UniProt O43353).
Assay [7] has as its target T3, JNK1 (Homo sapiens, UniProt P45983).
T3 construct: gene MAPK8

The target in assay [8] is PLK4 (Homo sapiens, UniProt O00444).
Assay [9] concerns the target T4, LZK (Homo sapiens, UniProt O43283).
T4 construct: gene MAP3K13

Assay [10] addresses T5, ABL1(F317L)-nonphosphorylated (Homo sapiens, UniProt P00519, F317L).
T5 construct: nonphosphorylated

Assay [11] deals with T6, CDK4-cyclinD3 (Homo sapiens, UniProt P11802).
T6 construct: cyclinD3

Assay [12] deals with PKN2 (Homo sapiens, UniProt Q16513).
In assay [13] the target is CSNK1G2 (Homo sapiens, UniProt P78368).
The target of assay [14] is SNRK (Homo sapiens, UniProt Q9NRH2).
Assay [15] addresses MAP3K15 (Homo sapiens, UniProt Q6ZN16).
Assay [16] concerns the target WNK3 (Homo sapiens, UniProt Q9BYP7).
Assay [17] deals with ACVR1 (Homo sapiens, UniProt Q04771).
Assay [18] has as its target T7, RPS6KA4(Kin.Dom.2-C-terminal) (Homo sapiens, UniProt O75676).
T7 construct: Kin.Dom.2-C-terminal

Sequence of PKN2 (Q16513 whole entry): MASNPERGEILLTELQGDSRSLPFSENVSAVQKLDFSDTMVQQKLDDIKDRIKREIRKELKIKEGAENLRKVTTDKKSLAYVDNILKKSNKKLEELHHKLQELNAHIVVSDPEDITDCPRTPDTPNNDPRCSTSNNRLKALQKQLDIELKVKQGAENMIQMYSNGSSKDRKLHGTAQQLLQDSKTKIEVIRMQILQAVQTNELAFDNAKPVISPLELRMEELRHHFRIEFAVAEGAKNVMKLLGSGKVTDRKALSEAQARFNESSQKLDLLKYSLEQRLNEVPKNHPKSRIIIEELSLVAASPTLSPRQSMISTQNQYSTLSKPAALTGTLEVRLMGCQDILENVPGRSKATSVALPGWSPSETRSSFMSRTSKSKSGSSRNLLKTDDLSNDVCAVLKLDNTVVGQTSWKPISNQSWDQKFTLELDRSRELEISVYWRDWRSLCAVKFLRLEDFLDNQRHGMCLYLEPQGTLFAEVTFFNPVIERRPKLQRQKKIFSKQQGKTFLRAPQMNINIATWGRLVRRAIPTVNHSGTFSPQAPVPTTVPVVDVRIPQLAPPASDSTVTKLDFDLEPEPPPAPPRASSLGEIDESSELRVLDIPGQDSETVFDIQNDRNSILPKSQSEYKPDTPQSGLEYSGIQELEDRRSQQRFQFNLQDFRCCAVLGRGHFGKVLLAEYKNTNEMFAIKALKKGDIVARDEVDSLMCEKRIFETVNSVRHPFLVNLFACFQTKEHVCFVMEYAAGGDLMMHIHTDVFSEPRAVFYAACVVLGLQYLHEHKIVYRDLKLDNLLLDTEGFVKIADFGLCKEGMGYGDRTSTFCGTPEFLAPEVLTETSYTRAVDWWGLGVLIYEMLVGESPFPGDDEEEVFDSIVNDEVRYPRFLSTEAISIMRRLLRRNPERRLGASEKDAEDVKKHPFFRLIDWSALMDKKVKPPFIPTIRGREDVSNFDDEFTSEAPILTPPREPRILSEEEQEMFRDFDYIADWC
Sequence of CSNK1G2 (P78368 whole entry): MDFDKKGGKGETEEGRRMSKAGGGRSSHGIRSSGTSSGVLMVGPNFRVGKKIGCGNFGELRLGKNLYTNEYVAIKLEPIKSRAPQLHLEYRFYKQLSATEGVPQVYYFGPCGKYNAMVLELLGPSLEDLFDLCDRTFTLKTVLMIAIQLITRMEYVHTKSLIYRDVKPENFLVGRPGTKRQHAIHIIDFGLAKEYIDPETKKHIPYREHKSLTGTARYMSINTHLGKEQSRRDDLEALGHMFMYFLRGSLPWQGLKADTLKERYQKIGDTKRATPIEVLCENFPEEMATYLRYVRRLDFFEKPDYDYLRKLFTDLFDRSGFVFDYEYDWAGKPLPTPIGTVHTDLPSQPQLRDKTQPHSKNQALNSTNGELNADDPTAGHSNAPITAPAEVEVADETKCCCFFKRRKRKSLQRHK
Sequence of MAP3K15 (Q6ZN16 whole entry): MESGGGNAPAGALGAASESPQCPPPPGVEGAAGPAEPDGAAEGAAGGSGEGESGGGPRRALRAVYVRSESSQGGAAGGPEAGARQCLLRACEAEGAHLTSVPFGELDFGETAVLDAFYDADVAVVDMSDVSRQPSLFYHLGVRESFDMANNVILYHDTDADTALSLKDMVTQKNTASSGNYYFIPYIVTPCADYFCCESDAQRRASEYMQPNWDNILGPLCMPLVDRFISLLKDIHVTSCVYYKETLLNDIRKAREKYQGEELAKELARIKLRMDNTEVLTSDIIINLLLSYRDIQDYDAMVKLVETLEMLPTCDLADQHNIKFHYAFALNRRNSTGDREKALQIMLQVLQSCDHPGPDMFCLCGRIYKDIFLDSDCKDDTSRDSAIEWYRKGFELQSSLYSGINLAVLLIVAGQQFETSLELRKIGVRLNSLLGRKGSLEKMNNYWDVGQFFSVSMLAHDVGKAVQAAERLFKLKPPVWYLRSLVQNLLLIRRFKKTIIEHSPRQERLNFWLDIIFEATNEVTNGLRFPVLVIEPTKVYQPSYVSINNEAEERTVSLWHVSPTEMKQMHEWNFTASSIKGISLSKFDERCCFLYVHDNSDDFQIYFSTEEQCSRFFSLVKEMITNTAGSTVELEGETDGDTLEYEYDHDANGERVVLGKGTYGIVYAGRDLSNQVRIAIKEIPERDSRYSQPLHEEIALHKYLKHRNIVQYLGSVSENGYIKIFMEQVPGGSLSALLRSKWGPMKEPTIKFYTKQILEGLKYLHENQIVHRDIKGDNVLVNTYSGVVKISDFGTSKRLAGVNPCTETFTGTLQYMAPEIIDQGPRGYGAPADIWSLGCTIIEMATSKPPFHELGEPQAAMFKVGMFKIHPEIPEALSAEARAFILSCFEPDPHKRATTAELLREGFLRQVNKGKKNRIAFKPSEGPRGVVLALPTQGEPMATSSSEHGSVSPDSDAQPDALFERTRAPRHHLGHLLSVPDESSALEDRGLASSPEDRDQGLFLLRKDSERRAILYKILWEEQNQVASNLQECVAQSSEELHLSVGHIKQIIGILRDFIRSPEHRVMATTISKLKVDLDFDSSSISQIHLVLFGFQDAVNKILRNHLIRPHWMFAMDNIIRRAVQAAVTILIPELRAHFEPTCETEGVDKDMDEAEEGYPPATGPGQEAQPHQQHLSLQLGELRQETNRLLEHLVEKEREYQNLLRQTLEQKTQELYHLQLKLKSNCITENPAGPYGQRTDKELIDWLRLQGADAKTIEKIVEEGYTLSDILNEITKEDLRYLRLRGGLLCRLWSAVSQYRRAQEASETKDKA
Sequence of RIPK2 (O43353 whole entry): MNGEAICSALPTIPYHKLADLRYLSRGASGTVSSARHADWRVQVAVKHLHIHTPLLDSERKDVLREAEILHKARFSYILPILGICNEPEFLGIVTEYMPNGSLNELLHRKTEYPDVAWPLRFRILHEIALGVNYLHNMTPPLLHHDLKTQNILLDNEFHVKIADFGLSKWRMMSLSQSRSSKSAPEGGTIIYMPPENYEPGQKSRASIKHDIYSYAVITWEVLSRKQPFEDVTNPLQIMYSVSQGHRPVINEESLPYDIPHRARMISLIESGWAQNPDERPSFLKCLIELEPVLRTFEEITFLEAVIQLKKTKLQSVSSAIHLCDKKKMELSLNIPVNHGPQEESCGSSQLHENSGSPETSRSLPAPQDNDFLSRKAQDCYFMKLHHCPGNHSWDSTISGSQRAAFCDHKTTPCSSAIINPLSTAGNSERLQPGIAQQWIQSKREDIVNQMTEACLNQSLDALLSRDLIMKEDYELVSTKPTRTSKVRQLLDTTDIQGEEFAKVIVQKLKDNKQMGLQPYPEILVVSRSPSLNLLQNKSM
T1 sequence (Q07002 whole entry): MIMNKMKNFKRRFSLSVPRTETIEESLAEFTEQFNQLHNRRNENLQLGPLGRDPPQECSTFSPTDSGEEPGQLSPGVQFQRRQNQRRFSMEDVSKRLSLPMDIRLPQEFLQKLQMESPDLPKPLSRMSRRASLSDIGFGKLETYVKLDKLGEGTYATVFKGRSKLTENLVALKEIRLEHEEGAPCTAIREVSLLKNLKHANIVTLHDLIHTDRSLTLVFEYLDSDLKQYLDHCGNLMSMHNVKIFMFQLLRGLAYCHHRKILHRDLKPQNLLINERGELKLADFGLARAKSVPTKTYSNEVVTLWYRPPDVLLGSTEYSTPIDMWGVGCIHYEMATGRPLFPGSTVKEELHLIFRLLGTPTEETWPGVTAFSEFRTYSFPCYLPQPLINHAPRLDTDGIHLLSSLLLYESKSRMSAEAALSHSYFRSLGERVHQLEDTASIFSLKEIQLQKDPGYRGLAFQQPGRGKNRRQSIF
Sequence of SNRK (Q9NRH2 whole entry): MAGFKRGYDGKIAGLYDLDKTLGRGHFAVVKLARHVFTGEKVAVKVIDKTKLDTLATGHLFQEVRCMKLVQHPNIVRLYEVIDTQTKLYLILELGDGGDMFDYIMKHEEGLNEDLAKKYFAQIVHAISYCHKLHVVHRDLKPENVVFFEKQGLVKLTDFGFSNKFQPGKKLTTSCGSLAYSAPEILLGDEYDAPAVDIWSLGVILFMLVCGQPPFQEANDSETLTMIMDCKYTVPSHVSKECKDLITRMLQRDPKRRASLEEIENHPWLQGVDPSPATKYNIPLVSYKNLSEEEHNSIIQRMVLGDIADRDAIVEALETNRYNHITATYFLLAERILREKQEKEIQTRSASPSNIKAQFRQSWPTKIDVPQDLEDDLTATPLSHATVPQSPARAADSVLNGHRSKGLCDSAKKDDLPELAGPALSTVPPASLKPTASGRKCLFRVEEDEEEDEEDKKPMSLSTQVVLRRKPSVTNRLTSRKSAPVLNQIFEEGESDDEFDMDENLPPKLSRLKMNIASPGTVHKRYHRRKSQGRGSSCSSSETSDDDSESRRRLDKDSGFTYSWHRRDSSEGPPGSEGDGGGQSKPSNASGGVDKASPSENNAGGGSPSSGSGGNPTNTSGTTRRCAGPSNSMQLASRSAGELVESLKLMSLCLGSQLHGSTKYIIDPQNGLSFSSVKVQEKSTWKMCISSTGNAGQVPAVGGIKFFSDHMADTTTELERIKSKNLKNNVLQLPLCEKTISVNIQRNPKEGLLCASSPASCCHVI
T3 sequence (P45983 whole entry): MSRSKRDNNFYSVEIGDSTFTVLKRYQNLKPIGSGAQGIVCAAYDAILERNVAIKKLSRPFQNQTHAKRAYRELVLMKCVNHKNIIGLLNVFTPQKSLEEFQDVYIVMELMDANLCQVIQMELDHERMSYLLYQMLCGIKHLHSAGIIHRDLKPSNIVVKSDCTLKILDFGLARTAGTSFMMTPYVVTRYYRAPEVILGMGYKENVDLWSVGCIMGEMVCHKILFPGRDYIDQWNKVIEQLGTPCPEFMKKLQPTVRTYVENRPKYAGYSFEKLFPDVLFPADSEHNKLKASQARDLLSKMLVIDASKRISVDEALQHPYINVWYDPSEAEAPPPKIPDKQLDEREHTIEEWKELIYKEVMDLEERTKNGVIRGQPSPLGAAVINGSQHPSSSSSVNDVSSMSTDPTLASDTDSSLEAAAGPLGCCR

For the molecule `c1ccc2c(c1)Sc1ccccc1N2CCN1CCOCC1` [J54], the remaining binding in assay [1] stood at 84%; in [2], 100%; in assay [3] it was 80%; in [4], 99%; in assay [5], 70%; in assay [6], 100%. Moreover, the remaining binding came out at 82% in [7]; 85% in [8]; 92% in assay [9]; 98% in [10]; 98% in assay [11]; 69% in assay [12]. In addition, the remaining binding stood at 93% in assay [13]; 59% in assay [14]; 100% in assay [15]; 98% in assay [16]; 94% in assay [17]; 94% in assay [18].
